# According to patent publication US20240360134A1, “PYRAZOLOPYRIMIDINES AND THEIR USES AS PDGFR INHIBITORS” (priority 2021, published 2024):
# Read-outs that look alike come from different tables or passages of the source.
# Experiments:
# VEGFR2, unphosphorylated = VEGFR2, unphosphorylated (Homo sapiens (Human), UniProt P35968); assay: VEGFR ADP GLO assay; type: biochemical; conditions: 5 nM VEGFR2, 1.2 mM ATP, 1 mg/mL Srctide, 180 min
# Experimental: Assay buffer stock contains 50 mM HEPES pH7.5, 10 mM MgCl2, 0.01% Brij-35, and 1 mM EGTA.
# Unphosphorylated VEGFR2. 52.6 μM in 50 mM Tris-HCl, pH 8.0, 50 mM NaCl, 5% Glycerol, 0.5 mM TCEP. Store at −80° C. in aliquots.
# 10 mg/mL srctide solution, prepared in Assay buffer (Assay buffer stock with 2 mM DTT, 0.1% Pluronic F-127, and 0.1 mg/mL ovalbumin). Sonicate 10 mg/ml Srctide solution for 10 minutes and then vacuum filter.
# Assay buffer. Add DTT to 2 mM, Pluronic F-127 to 0.1% and ovalbumin to 0.1 mg/mL to Assay buffer stock.
# 2× kinase solution. Make a working solution of 10 nM unphosphorylated VEGFR2 in Assay buffer. Vacuum filter 2× kinase solution prior to running assay. Keep on ice until use.
# 2× substrate/ATP solution. Make a working solution of 2 mg/mL srctide and 2.4 mM ATP in Assay buffer. Keep on ice until use.
# Step 1. Dispensing inhibitors/controls: Using Echo, dispense 10 nL/well compound serial dilutions in DMSO to columns 1-22 (in 384-well plates) or columns 1-44 (in 1536-well plates). Dilution series=11 pt, 3-fold dilutions. The top compound concentration in the source plate is 4 mM. The top compound concentration in the assay plate is 10 uM. Using Echo, dispense 10 nl/well DMSO to column 23 (in 384-well plates) or columns 45-47 (in 1536-well plates). These wells will serve as negative control wells Using Echo, dispense 10 nl/well 400 uM TAK-593 in DMSO to column 24 (in 384-well plates) or column 48 (in 1536-well plates). The final concentration of TAK-593 in the assay should be 1 uM. These wells will serve as positive control wells.
# Step 2. Pre-incubation of inhibitors with kinase: Add 2 μL/well 2× kinase solution. Centrifuge at 1000 rpm for 1 min. Incubate at room temperature for 30 min.
# Step 3. Kinase cascade reaction: Add 2 μL/well 2× substrate/ATP solution to initiate kinase reactions. Centrifuge at 1000 rpm for 1 min. Incubate at room temperature for 180 min.
# Final concentrations of components in the assay:
# Step 4. Quench: Add 2 uL/well ADP Glo Reagent+0.05% CHAPS. Centrifuge at 1000 rpm for 1 min; Incubate at room temperature for one hour.
# Step 5. Detection: Add 2 uL/well Kinase Detection Reagent+0.05% CHAPS. Centrifuge at 1000 rpm for 1 min; Incubate at room temperature for 1 hour; Read Luminescence on a plate reader.
# % Inhibition: % Inhibition=(NC−sample)/(NC−PC)*100 where NC is the mean of negative control (reactions without inhibitor), and PC is the mean of positive control (1 μM TAK-593).
# IC50 values are determined from a 4-parameter fit, using the following equation: Y=Bottom+(Top−Bottom)/(1+10^(Log IC50-X)*Hill Slope), where X=log10 of the compound concentration; top can be defined by PC; bottom defined by NC.
# [1] = target: Tb-labeled inactive PDGFRβ (Homo sapiens (Human), UniProt P09619); assay: biochemical; type: binding
# PDGFRβ = PDGFRβ (Rattus norvegicus (Rat), UniProt Q05030); assay: PDGFRβ Cellular Assay (PDGFRb P-Y751 HTRF, PDGF-BB stimulated A10 cells); type: cell-based
# Experimental: Cell Culture and Preparation: Cells are cultured according to ATCC procedure (5) with the addition of the antibiotic penicillin-streptomycin. If working from frozen, cells should be thawed according to ATCC procedure. Depending on the cell density of frozen vial, cells will need time to recover from thaw. An 80% confluent T75 flask should be enough for one 384 well plate.
# Stock Solutions: Rat PDGFBB. A 100 ug/mL stock is prepared by reconstituting 50 ug in 500 μL of 4 mM HCl and 0.1% BSA. It can be stored for a month at 4° C., or aliquoted out and frozen in the −20/−80° C. to avoid multiple free-thaw cycles.
# 1× Cisbio cell lysis buffer. The cell lysis buffer is diluted 4-fold with molecular grade water. The blocking agent is then diluted 25-fold in the diluted lysis buffer.
# Antibody solutions. Equal amounts d2 and cryptate antibody are diluted 20-fold in detection buffer.
# Rat PDGFBB. A working stock of 100 ng/mL is created from the stock solution in 10% FBS culture media.
# Step 1: Plating Cells: Media from the A10 cell flask is aspirated. The cells are rinsed with PBS and then trypsinized to disperse the cell layer. The cells are then pelleted are resuspended to 1.25e5 cells/mL. […] Plates are covered and placed in the incubator (37° C. 5% CO2) overnight to allow cells to adhere.
# Step 2: Compound Dispense: Approximately 18 hours after plating, dispense 40 nL compound onto cells using Echo. […] The plate is returned to the incubator for 3 hours.
# After 10 minutes the media is removed by flicking the plate.
# Step 4: Cell lysis and antibody addition: 20 uL lysis buffer per well is added to the plate via Tempest. 5 uL antibody solution is added per well via the Tempest. The plate is placed on the shaker at 230 rpm for 1 hour at room temperature.
# Step 5: Detection: The plate is read using the HTRF module on the BMG Pherastar. Data is analyzed using Genedata Screener.
# IC50 values are determined from a 4-parameter fit, using the following equation: Y=Bottom+(Top−Bottom)/(1+10((Log IC50−X)*Hill slope)), where X=log10 of the compound concentration; top can be defined by PC; bottom defined by NC.
# [2] = target: His6-TEV-PDGFRβ (557-1016) (Homo sapiens (Human), UniProt P09619); assay: PDGFRβ HTRF Assay; type: biochemical
# Experimental: Instrumentation: a. Compound liquid handling: LabCyte Echo; b. Reagent liquid handling: Thermo Scientific Multidrop Combi; c. BMG PHERAStar multilabel plate reader.
# Protein Reagent: His6-TEV-PDGFRβ Protein Prep prepared at Accelagen.
# Assay buffer stock solution, contains 50 mM Hepes, 10 mM MgCl2, 1 mM EGTA, and 0.01% Brij-35, 0.01% ovalbumin, 2 mM DTT at pH 7.5, in molecular biology grade water. Store at room temperature.
# Assay buffer. Dilute 5× Kinase buffer 5-fold with molecular biology grade water and add DTT to 2 mM and ovalbumin to 0.1 mg/mL (or 0.01%).
# 2× protein solution. Make a working solution of […] PDGFRβ in assay buffer. Keep on ice until use to maintain enzyme stability.
# 2× substrate solution. Make a working solution of 1.6 mM ATP and 1 μM TK-substrate biotin peptide in assay buffer. 3× quench/detection solution.
# Step 2. PDGFRβ E+I pre-incubation: Add 2 μL 2× protein solution to columns 1-24 using the Multidrop Combi. Centrifuge at 1000 rpm for 1 min. Incubate 30 min at RT
# Step 2. Enzymatic reaction: Add 2 μL substrate solution to columns 1-24 to initiate the reaction using the Multidrop Combi; cover/seal the assay plate to reduce evaporation. Centrifuge at 1000 rpm for 1 min. Incubate at room temperature for 3 hours.
# Final concentrations of components in PDGFRp cascade assay:
# 0.5 μM TK-substrate biotin peptide
# Step 3. Quench/Detection: Add 2 μl 3× quench/detection solution to columns 1-24 using the Multidrop Combi; cover/seal the plate. Centrifuge 1 min 1000 rpm. Incubate at RT for 60 min.
# HTRF ratio values calculated by the instrument (Ratio is acceptor counts/donor counts*10,000) is exported from the plate reader and used in data analysis. The exported data will be used to calculate 1) compound activity and 2) assay statistics. […] Assay statistics can include Robust Z′ and Signal to Background.
# % Inhibition Calculation: Percent inhibition will be calculated for sample wells based on the equation: […]
# IC50 Calculation: For IC50 determination, full 11-point dose response data will be processed using the following equation: […]
# [3] = A10 cells, 3 hours compound, 15 ng/mL PDGFbb for 10 minutes, read-out: PDGFR Cellular IC50
# [4] = 800 μM ATP, 0.5 μM TK-substrate biotin peptide, 30 min pre-incubation, 3 hours reaction, read-out: PDGFR HTRF IC50
# VEGFR2, unphosphorylated, sequence (P35968 whole entry, looked up): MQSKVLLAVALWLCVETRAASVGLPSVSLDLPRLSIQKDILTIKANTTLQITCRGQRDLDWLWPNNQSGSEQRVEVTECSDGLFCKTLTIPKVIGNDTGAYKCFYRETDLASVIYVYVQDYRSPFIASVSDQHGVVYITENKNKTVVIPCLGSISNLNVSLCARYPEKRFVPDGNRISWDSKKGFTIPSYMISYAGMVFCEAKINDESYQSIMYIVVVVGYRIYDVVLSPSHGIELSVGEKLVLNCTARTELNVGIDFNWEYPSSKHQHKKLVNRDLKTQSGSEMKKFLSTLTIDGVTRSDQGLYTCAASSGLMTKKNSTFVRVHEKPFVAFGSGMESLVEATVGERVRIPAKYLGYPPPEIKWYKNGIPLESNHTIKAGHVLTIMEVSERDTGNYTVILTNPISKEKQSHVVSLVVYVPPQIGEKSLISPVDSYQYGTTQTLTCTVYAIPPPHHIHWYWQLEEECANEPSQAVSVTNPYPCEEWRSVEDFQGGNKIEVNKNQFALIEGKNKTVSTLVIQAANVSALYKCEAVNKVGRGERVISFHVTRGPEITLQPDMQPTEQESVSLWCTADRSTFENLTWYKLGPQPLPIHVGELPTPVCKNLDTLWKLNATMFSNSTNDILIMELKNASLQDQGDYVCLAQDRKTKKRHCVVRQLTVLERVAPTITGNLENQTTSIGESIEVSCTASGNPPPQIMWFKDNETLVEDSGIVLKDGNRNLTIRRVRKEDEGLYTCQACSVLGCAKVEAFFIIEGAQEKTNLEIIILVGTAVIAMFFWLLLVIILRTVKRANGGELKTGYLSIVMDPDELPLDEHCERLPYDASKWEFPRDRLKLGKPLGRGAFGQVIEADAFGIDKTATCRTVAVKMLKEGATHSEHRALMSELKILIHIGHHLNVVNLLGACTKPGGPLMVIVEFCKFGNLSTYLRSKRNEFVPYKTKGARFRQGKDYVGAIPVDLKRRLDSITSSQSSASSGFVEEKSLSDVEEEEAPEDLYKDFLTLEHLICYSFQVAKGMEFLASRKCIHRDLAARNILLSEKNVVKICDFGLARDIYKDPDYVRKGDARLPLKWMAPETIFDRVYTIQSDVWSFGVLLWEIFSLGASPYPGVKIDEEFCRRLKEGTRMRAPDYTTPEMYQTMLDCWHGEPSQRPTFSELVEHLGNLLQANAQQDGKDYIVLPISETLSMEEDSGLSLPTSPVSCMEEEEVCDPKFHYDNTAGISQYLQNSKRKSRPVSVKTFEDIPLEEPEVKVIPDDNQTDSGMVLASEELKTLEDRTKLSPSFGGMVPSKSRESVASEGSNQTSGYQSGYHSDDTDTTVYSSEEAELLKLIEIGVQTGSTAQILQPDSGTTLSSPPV
# PDGFRβ, sequence (Q05030 whole entry, looked up): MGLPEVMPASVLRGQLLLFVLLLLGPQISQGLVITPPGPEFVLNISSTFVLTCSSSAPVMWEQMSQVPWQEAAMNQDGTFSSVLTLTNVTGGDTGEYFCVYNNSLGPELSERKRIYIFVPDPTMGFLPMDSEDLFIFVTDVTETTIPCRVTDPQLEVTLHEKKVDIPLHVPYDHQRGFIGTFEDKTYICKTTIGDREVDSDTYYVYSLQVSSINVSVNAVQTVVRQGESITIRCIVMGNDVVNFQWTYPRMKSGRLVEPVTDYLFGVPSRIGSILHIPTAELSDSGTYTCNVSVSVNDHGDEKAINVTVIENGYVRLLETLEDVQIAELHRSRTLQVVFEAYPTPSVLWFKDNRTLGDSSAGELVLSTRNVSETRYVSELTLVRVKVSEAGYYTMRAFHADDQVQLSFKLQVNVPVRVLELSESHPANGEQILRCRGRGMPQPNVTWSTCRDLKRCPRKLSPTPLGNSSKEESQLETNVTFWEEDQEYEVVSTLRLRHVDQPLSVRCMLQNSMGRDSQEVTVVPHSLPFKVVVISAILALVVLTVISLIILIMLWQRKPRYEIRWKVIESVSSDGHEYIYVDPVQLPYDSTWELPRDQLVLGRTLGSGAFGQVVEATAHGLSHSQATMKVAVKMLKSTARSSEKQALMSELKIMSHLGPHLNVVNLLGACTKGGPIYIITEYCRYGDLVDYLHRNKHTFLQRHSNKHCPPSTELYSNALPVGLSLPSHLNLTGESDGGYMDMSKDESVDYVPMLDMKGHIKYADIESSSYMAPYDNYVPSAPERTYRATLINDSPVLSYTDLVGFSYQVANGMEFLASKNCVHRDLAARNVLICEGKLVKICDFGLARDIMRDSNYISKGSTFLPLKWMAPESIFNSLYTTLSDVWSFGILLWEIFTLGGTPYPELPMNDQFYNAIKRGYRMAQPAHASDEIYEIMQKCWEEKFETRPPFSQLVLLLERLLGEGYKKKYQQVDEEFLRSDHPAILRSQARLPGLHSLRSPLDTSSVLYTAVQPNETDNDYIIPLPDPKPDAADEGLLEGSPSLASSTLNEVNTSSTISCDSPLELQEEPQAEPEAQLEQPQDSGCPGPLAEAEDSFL
# His6-TEV-PDGFRβ (557-1016), sequence (P09619 whole entry, looked up): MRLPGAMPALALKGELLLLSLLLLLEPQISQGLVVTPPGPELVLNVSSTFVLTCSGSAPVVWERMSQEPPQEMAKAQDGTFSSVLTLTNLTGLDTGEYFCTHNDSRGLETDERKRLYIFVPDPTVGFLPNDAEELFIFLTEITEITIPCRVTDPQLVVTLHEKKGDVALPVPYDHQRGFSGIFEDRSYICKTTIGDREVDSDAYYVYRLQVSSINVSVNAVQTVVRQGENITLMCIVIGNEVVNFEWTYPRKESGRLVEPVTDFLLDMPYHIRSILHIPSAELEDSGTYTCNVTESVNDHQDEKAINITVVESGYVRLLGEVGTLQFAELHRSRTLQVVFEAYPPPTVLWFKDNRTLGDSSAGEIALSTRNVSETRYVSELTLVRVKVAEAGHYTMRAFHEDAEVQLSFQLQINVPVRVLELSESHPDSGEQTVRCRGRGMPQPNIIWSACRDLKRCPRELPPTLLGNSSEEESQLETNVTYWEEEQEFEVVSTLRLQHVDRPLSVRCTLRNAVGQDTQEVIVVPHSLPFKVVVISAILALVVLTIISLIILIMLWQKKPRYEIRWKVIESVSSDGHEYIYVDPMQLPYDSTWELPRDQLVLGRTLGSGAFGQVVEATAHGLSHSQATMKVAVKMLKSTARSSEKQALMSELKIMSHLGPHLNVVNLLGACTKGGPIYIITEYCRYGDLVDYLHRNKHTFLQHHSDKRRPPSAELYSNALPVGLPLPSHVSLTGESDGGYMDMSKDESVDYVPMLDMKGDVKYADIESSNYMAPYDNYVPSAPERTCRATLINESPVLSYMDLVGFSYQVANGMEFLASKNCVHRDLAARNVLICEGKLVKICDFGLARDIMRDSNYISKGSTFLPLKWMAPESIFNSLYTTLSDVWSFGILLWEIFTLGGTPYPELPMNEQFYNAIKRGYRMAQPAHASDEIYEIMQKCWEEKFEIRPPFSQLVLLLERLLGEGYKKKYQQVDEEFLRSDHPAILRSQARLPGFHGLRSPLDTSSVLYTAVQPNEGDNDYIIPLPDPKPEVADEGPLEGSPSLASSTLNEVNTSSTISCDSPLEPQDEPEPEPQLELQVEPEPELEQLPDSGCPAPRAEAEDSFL
# Tb-labeled inactive PDGFRβ, sequence (P09619 whole entry, looked up): as above
structure (smiles),measurement,setting,value
"Cc1ncc(C(=O)NCCN2C[C@H](C)O[C@@H](C)C2)cc1Nc1nn(C)c2nc(Nc3ccnc(N4CCC(CCO)CC4)c3)ncc12 [Example 112, N-(2-((2S,6S)-2,6-dimethylmorpholino)ethyl)-5-((6-((2-(4-(2-hydroxyethyl)piperidin-1-yl)pyridin-4-yl)amino)-1-methyl-1H-pyrazolo[3,4-d]pyrimidin-3-yl)amino)-6-methylnicotinamide]",IC50,"VEGFR2, unphosphorylated",> 7.5 µM
same,IC50,[1]; read-out: PDGFR Lantha IC50,0.0045 µM
same,IC50,PDGFRβ; [3],0.0844 µM
same,IC50,[2]; [4],0.00057 µM
"Cc1ncc(C(=O)NCCN2CCCC2(C)C)cc1Nc1nn(C)c2nc(Nc3cccc(C4(C(=O)O)CC4)c3)ncc12 [Example 38, 1-(3-((3-((5-((2-(2,2-dimethylpyrrolidin-1-yl)ethyl)carbamoyl)-2-methylpyridin-3-yl)amino)-1-methyl-1H-pyrazolo[3,4-d]pyrimidin-6-yl)amino)phenyl)cyclopropanecarboxylic acid]",IC50,"VEGFR2, unphosphorylated",0.715 µM
same,IC50,[1]; read-out: PDGFR Lantha IC50,0.0153 µM
same,IC50,PDGFRβ; [3],> 3 µM
same,IC50,[2]; [4],0.00159 µM
"Cc1ncc(C(=O)NCCN2CCC(F)(F)CC2)cc1Nc1nn(C)c2nc(Nc3cncnc3)ncc12 [Example 1, N-(2-(4,4-difluoropiperidin-1-yl)ethyl)-6-methyl-5-((1-methyl-6-(pyrimidin-5-ylamino)-1H-pyrazolo[3,4-d]pyrimidin-3-yl)amino)nicotinamide]",IC50,"VEGFR2, unphosphorylated",> 7.5 µM
same,IC50,[1]; read-out: PDGFR Lantha IC50,0.0033 µM
same,IC50,PDGFRβ; [3],0.012 µM
same,IC50,[2]; [4],0.00065 µM
"CC[C@H]1COCCN1CCNC(=O)c1cnc(C)c(Nc2nn(C)c3nc(Nc4cnn(C)c4)ncc23)c1 [Example 81, (S)—N-(2-(3-ethylmorpholino)ethyl)-6-methyl-5-((1-methyl-6-((1-methyl-1H-pyrazol-4-yl)amino)-1H-pyrazolo[3,4-d]pyrimidin-3-yl)amino)nicotinamide]",IC50,"VEGFR2, unphosphorylated",2.5 µM
same,IC50,[1],0.0026 µM
same,IC50,PDGFRβ,0.0211 µM
same,IC50,[2],0.00042 µM
"Cc1ncc(C(=O)NCCN2CCC3(CC3)C2)cc1Nc1nn(C)c2nc(Nc3cncnc3)ncc12 [Example 58, N-(2-(5-azaspiro[2.4]heptan-5-yl)ethyl)-6-methyl-5-((1-methyl-6-(pyrimidin-5-ylamino)-1H-pyrazolo[3,4-d]pyrimidin-3-yl)amino)nicotinamide]",IC50,"VEGFR2, unphosphorylated",> 7.5 µM
same,IC50,[1]; read-out: PDGFR Lantha IC50,0.0048 µM
same,IC50,PDGFRβ; [3],0.101 µM
same,IC50,[2]; [4],0.00036 µM
"Cc1nn(C)cc1Nc1ncc2c(Nc3cc(C(=O)NCCN4CCC5(CC5)C4)cnc3C)nn(C)c2n1 [Example 154, N-(2-(5-azaspiro[2.4]heptan-5-yl)ethyl)-5-((6-((1,3-dimethyl-1H-pyrazol-4-yl)amino)-1-methyl-1H-pyrazolo[3,4-d]pyrimidin-3-yl)amino)-6-methylnicotinamide]",IC50,"VEGFR2, unphosphorylated",> 7.5 µM
same,IC50,[1]; read-out: PDGFR Lantha IC50,0.012 µM
same,IC50,PDGFRβ; [3],0.12 µM
same,IC50,[2]; [4],0.00141 µM
"Cc1ncc(C(=O)NCCN2CCCC23CC3)cc1Nc1nn(C)c2nc(Nc3cncnc3)ncc12 [Example 57, N-(2-(4-azaspiro[2.4]heptan-4-yl)ethyl)-6-methyl-5-((1-methyl-6-(pyrimidin-5-ylamino)-1H-pyrazolo[3,4-d]pyrimidin-3-yl)amino)nicotinamide]",IC50,"VEGFR2, unphosphorylated",> 7.5 µM
same,IC50,[1]; read-out: PDGFR Lantha IC50,0.0056 µM
same,IC50,PDGFRβ; [3],0.0156 µM
same,IC50,[2]; [4],0.00097 µM
"Cc1ncccc1Nc1ncc2c(Nc3cc(NC(=O)CN4CCC[C@@H]4C)cnc3C)nn(C)c2n1 [Example 145, (S)—N-(6-methyl-5-((1-methyl-6-((2-methylpyridin-3-yl)amino)-1H-pyrazolo[3,4-d]pyrimidin-3-yl)amino)pyridin-3-yl)-2-(2-methylpyrrolidin-1-yl)acetamide]",IC50,"VEGFR2, unphosphorylated",> 7.5 µM
same,IC50,[1]; read-out: PDGFR Lantha IC50,0.0153 µM
same,IC50,PDGFRβ; [3],0.0087 µM
same,IC50,[2]; [4],0.00159 µM
"Cc1ncc(C(=O)NCCN2CCCC2(C)C)cc1Nc1nn(C)c2nc(Nc3cncc(C(N)=O)c3)ncc12 [Example 29, 5-((6-((5-carbamoylpyridin-3-yl)amino)-1-methyl-1H-pyrazolo[3,4-d]pyrimidin-3-yl)amino)-N-(2-(2,2-dimethylpyrrolidin-1-yl)ethyl)-6-methylnicotinamide]",IC50,"VEGFR2, unphosphorylated",> 10 µM
same,IC50,[1]; read-out: PDGFR Lantha IC50,0.0066 µM
same,IC50,PDGFRβ; [3],5.33 µM
same,IC50,[2]; [4],0.0008 µM
"Cc1ncc(C(=O)NCCC2CCCCC2)cc1Nc1nn(C)c2nc(Nc3ccc(N4CCNCC4)nc3)ncc12 [Example 109, N-(2-cyclohexylethyl)-6-methyl-5-((1-methyl-6-((6-(piperazin-1-yl)pyridin-3-yl)amino)-1H-pyrazolo[3,4-d]pyrimidin-3-yl)amino)nicotinamide]",IC50,"VEGFR2, unphosphorylated",0.167 µM
same,IC50,[1]; read-out: PDGFR Lantha IC50,0.004 µM
same,IC50,PDGFRβ; [3],0.127 µM
same,IC50,[2]; [4],0.00078 µM
